Assays:
[1] = Solubility of the drug substance; format: physicochemical; details: for solubility in water: dihydrate
analgesia = experiment: Propensity for reversing analgesia after oral administration; format: in vivo; details: administered orally; compared with alvimopan

## C[C@H]1CN(C[C@H](Cc2ccccc2)C(=O)NCC(=O)O)CC[C@@]1(C)c1cccc(O)c1 [Alvimopan, [[2(S)-[[4(R)-(3-hydroxyphenyl)-3(R),4-dimethyl-1-piperidinyl]methyl]-1-oxo-3-phenylpropyl]amino]acetic acid dihydrate]
[1]; acid pH versus basic pH
  solubility as a function of pH: more soluble at an acid pH than a basic pH
[1]
  solubility in water: extremely low solubility in water
[1]; listed as compound of formula (II)
  solubility in water: low solubility in water except at low or high pH conditions

## C[C@H]1CN(C[C@H](Cc2ccccc2)C(=O)O)CC[C@@]1(C)c1cccc(O)c1 [(3R, 4R, S)-Q-CH2CH(CH2(C6H5))C(O)OH, (αS,3R,4R)-4-(3-hydroxyphenyl)-3,4-dimethyl-α-(phenylmethyl)-1-piperidinepropanoic acid monohydrate]
analgesia
  propensity for reversing analgesia: much greater propensity for undesirably reversing analgesia than alvimopan

From patent US20070092576A1, “Compositions containing opioid antagonists” (Adolor Corporation, priority 2005, published 2007)
